Experimental data reported in patent US20210244720A1, “Therapeutic Tyrosine Kinase Inhibitors for Relapsing Multiple Sclerosis (RMS)” (Genzyme Corporation, priority 2020, published 2021).

Tested on: participants with relapsing multiple sclerosis (RMS)
Test: Phase 2b study in RMS: safety and tolerability (adverse events, laboratory tests, ECG, vital signs)
[1] = 5 mg, 12 weeks treatment, n = 33
[2] = 5 mg, BTK inhibitor treatment period, safety population, N = 32
[3] = 5 mg, BTK inhibitor treatment period, safety population, N = 33
[4] = 15 mg, 12 weeks treatment, n = 32
[5] = 15 mg, BTK inhibitor treatment period, safety population, N = 32
[6] = 30 mg, 12 weeks treatment, n = 33
[7] = 30 mg, BTK inhibitor treatment period, safety population, N = 33
[8] = 60 mg, 12 weeks treatment, n = 32

For `C=CC(=O)N1CCC[C@@H](n2c(=O)n(-c3ccc(Oc4ccccc4)cc3)c3c(N)nccc32)C1` [the BTK inhibitor, (R)-1-(1-acryloylpiperidin-3-yl)-4-amino-3-(4-phenoxyphenyl)-1H-imidazo[4,5-c]pyridin-2(3H)-one], the “Accidental overdose, patients n (%)” value [1] was 0, the “Alanine aminotransferase increased, patients n (%)” value [1] was 1 (3%) and the “Alopecia, patients n (%)” value [1] was 1 (3%). For the same compound, the “Back pain, patients n (%)” value [1] was 1 (3%), the “Gastroenteritis, patients n (%)” value [1] was 1 (3%) and the “Headache, patients n (%)” value [1] was 1 (3%). For the same compound, the “Muscle spasticity, patients n (%)” value [1] was 0, the “Nasopharyngitis, patients n (%)” value [1] was 1 (3%) and the “Oropharyngeal pain, patients n (%)” value [1] was 1 (3%). For the same compound, the “Peripheral edema, patients n (%)” value [1] was 2 (6%), the “Respiratory tract infection, patients n (%)” value [1] was 0 and the “Upper respiratory tract infection, patients n (%)” value [1] was 2 (6%). The “Participants with any TEAE, %” value [2] was “(50.0) %”, the “Participants with any treatment-related TEAE, %” value [2] was “(18.8) %” and the “Participants with treatment emergent SAE(s), Any class, n(%)” value (shortened to “Participants … Any class, n(%)”) [2] was 0. For the same compound, the “Participants with treatment emergent SAE(s), Multiple sclerosis relapse, n(%)” value (“Participants … Multiple sclerosis relapse, n(%)” below) [2] was 0, the “Participants with treatment emergent SAE(s), NERVOUS SYSTEM DISORDERS, n(%)” value (shortened to “Participants … NERVOUS SYSTEM DISORDERS, n(%)”) [2] was 0 and the “AESI, Alanice aminotransferase increased, n (%)” value [3] was 0. For the same compound, the “AESI, Investigations, n (%)” value [3] was 0, the “Any AESI, n (%)” value [3] was 0 and the “AESI, Alanice aminotransferase increased, n (%)” value (5 mg, Weeks 1 to 4, N = 16) was 0. The “AESI, Investigations, n (%)” value (5 mg, Weeks 1 to 4, N = 16) was 0, the “Any AESI, n (%)” value (5 mg, Weeks 1 to 4, N = 16) was 0 and the “Participants with any TEAE, %” value (5 mg, Weeks 1 to 4, N = 32) was “(25.0) %”. The “Participants with any treatment-related TEAE, %” value (5 mg, Weeks 1 to 4, N = 32) was “(12.5) %”, the “Any AE, %” value (5 mg, Weeks 1 to 4, n = 16) was “(31.3%)” and the “Any treatment-related AE, %” value (5 mg, Weeks 1 to 4, n = 16) was “(12.5%)”. The “Any AE, %” value (5 mg, Weeks 1 to 12, n = 33) was “(57.6) %”, the “Any treatment-related AE, %” value (5 mg, Weeks 1 to 12, n = 33) was “(15.2) %” and the “Accidental overdose, patients n (%)” value [4] was 0. For the same compound, the “Alanine aminotransferase increased, patients n (%)” value [4] was 0, the “Alopecia, patients n (%)” value [4] was 1 (3%) and the “Back pain, patients n (%)” value [4] was 1 (3%). For the same compound, the “Gastroenteritis, patients n (%)” value [4] was 0, the “Headache, patients n (%)” value [4] was 3 (9%) and the “Muscle spasticity, patients n (%)” value [4] was 0. For the same compound, the “Nasopharyngitis, patients n (%)” value [4] was 0, the “Oropharyngeal pain, patients n (%)” value [4] was 0 and the “Peripheral edema, patients n (%)” value [4] was 0. For the same compound, the “Respiratory tract infection, patients n (%)” value [4] was 1 (3%), the “Upper respiratory tract infection, patients n (%)” value [4] was 2 (6%) and the “AESI, Alanice aminotransferase increased, n (%)” value [5] was 0. The “AESI, Investigations, n (%)” value [5] was 0, the “Any AESI, n (%)” value [5] was 0 and the “Participants with any TEAE, %” value [5] was “(56.3) %”. The “Participants with any treatment-related TEAE, %” value [5] was “(9.4) %”, the “Participants … Any class, n(%)” value [5] was 0 and the “Participants … Multiple sclerosis relapse, n(%)” value [5] was 0. The “Participants … NERVOUS SYSTEM DISORDERS, n(%)” value [5] was 0, the “AESI, Alanice aminotransferase increased, n (%)” value (15 mg, Weeks 1 to 4, N = 16) was 0 and the “AESI, Investigations, n (%)” value (15 mg, Weeks 1 to 4, N = 16) was 0. For the same compound, the “Any AESI, n (%)” value (15 mg, Weeks 1 to 4, N = 16) was 0, the “Participants with any TEAE, %” value (15 mg, Weeks 1 to 4, N = 32) was “(43.8) %” and the “Participants with any treatment-related TEAE, %” value (15 mg, Weeks 1 to 4, N = 32) was “(3.1) %”. For the same compound, the “Any AE, %” value (15 mg, Weeks 1 to 4, n = 16) was “(18.9%)”, the “Any AE, %” value (15 mg, Weeks 1 to 12, n = 32) was “(53.1) %” and the “Any treatment-related AE, %” value (15 mg, Weeks 1 to 12, n = 32) was “(3.1) %”. For the same compound, the “ALT level of the AESI participant” value (30 mg group, Week 8 visit) was 105 U/L, the “ALT level of the AESI participant” value (30 mg group, within 4 days after Week 8 visit) was 32 U/L and the “AESIs (alanine aminotransferase increased >3×ULN)” value (30 mg treatment period) was 1. For the same compound, the “Accidental overdose, patients n (%)” value [6] was 0, the “Alanine aminotransferase increased, patients n (%)” value [6] was 1 (3%) and the “Alopecia, patients n (%)” value [6] was 0. The “Back pain, patients n (%)” value [6] was 2 (6%), the “Gastroenteritis, patients n (%)” value [6] was 0 and the “Headache, patients n (%)” value [6] was 1 (3%). For the same compound, the “Muscle spasticity, patients n (%)” value [6] was 1 (3%), the “Nasopharyngitis, patients n (%)” value [6] was 1 (3%) and the “Oropharyngeal pain, patients n (%)” value [6] was 1 (3%). The “Peripheral edema, patients n (%)” value [6] was 0, the “Respiratory tract infection, patients n (%)” value [6] was 1 (3%) and the “Upper respiratory tract infection, patients n (%)” value [6] was 1 (3%). For the same compound, the “AESI, Alanice aminotransferase increased, n (%)” value [7] was 1 (3.0), the “AESI, Investigations, n (%)” value [7] was 1 (3.0) and the “Any AESI, n (%)” value [7] was 1 (3.0). For the same compound, the “Participants with any TEAE, %” value [7] was “(51.5) %”, the “Participants with any severe TEAE, %” value [7] was “(3.0) %” and the “Participants with any treatment emergent SAE, %” value [7] was “(3.0) %”. For the same compound, the “Participants with any treatment-related TEAE, %” value [7] was “(12.1) %”, the “Participants … Any class, n(%)” value [7] was 1 (3.0) and the “Participants … Multiple sclerosis relapse, n(%)” value [7] was 1 (3.0). For the same compound, the “Participants … NERVOUS SYSTEM DISORDERS, n(%)” value [7] was 1 (3.0), the “AESI, Alanice aminotransferase increased, n (%)” value (30 mg, Weeks 1 to 4, N = 16) was 0 and the “AESI, Investigations, n (%)” value (30 mg, Weeks 1 to 4, N = 16) was 0. The “Any AESI, n (%)” value (30 mg, Weeks 1 to 4, N = 16) was 0, the “Participants with any TEAE, %” value (30 mg, Weeks 1 to 4, N = 33) was “(42.4) %” and the “Participants with any treatment-related TEAE, %” value (30 mg, Weeks 1 to 4, N = 33) was “(12.1) %”. For the same compound, the “Any AE, %” value (30 mg, Weeks 1 to 4, n = 16) was “(12.5%)”, the “Any AE, %” value (30 mg, Weeks 1 to 12, n = 33) was “(54.5) %” and the “Any treatment-related AE, %” value (30 mg, Weeks 1 to 12, n = 33) was “(12.1) %”. For the same compound, the “ALT level of the AESI participant” value (60 mg group, Week 4 visit, ULN 34 U/L) was 107 U/L, the “ALT level of the AESI participant” value (60 mg group, Week 12) was 28 U/L and the “AESIs (alanine aminotransferase increased >3×ULN)” value (60 mg treatment period) was 1. For the same compound, the “Accidental overdose, patients %” value [8] was “(9%)”, the “Accidental overdose, patients n” value [8] was 3 and the “Alanine aminotransferase increased, patients %” value [8] was “(3%)”. The “Alanine aminotransferase increased, patients n” value [8] was 1, the “Alopecia, patients %” value [8] was “(3%)” and the “Alopecia, patients n” value [8] was 1. For the same compound, the “Back pain, patients n” value [8] was 0, the “Gastroenteritis, patients %” value [8] was “(6%)” and the “Gastroenteritis, patients n” value [8] was 2. The “Headache, patients %” value [8] was “(13%)”, the “Headache, patients n” value [8] was 4 and the “Muscle spasticity, patients %” value [8] was “(6%)”. For the same compound, the “Muscle spasticity, patients n” value [8] was 2.
